Laboratory results taken from patent publication US8481503B2, “Combination cancer therapy with an AKT inhibitor and other anticancer agents” (Merck Sharp & Dohme Corp., priority 2009, dated 2013).

Tests used:
Type in all cases: cell-based, Human
Caspase-3/7 [1] = experiment: Caspase-3/7 assay (Caspase-Glo 3/7) in A2780 cells, Compound A plus cytotoxic agents
Description: A2780 ovarian cancer cell line was cultured at 37° C. in complete medium (RPMI-1640 supplemented with 10% heat-inactivated FBS) and plated at 2,000 cells/well in 96 well assay plates (CORNING #3340). […] Then, Compound A and cytotoxic agents were added to each well and incubated at 37° C. in 5% CO2 for 24 hours. […] Medium was removed and 50 ul of Caspase-Glo reagents were added to wells. […] Relative Caspase-3/7 induction level was then calculated as the fold increase compared with the level of caspase-3/7 induction in the non-treatment group.

Caspase-3/7 [2] = experiment: Caspase-3/7 assay (Caspase-Glo 3/7) in NCI-H460 cells, Compound A plus cytotoxic agents
[3] = tested on: A2780 ovarian cancer cell line; experiment: in vitro proliferation/viability, combination Compound A and standard of care agents (CellTiter-Glo, CalcuSyn CI); details: combination partner SOC with Compound A, simultaneous 72 h
Description: (§1) A 2- or 3-fold serial dilution series of concentrated Compound A/carboplatin combinations was prepared, in which the concentration ratio of the two drugs was fixed and equal to […] ratio of Compound A and carboplatin determined in single agent titrations described above. Corresponding single agent dilution series of concentrated Compound A and carboplatin were also prepared. The three dilution series were then tested in the proliferation/viability assay as described above. The data were analyzed using CalcuSyn software (BIOSOFT) that calculates combination index (CI) for each combination of Compound A/carboplatin as described below. Combination index values were generated by inserting the interpolated values into the mutually exclusive equation derived by Chou and Talalay.
(§2) Synergistic interaction between compounds was analyzed by the median effect method described by Chou and Talalay (Adv. Enzyme Regul. 22: 27-55, 1984). Studies were first conducted to determine the potency of Compound A or combination partner (Drug-A) as single agent in inhibiting proliferation/viability of tumor cells. The IC50 values of each single agent were determined by fitting data to four parameter dose-response equation. Percent inhibition of cell growth was calculated relative to vehicle treated control wells. […] Y starts at Bottom and goes to Top with a sigmoid shape.
(§3) The fixed ratio experimental design was then used to compare of various Compound A/Drug-A combinations and corresponding single agent treatments.
(§4) D1 and D2 are known from the composition of the combination and D1c and D2c can be calculated from the equation; Dc=Dm*[fa/(1−fa)]^1/m where Dm is the concentration of drugs giving 50% effect, fa is the fraction affected, and m is the slope from the median effect plot of log (fa/fu) where fu is the fraction unaffected versus log (D). A CI equal to 1 signifies an additive effect, less than 1 a synergistic effect, and greater than 1 an antagonistic effect.
Human ovarian cancer cell (A2780) was obtained from the European Collection of Cell Culture (ECACC). A2780 cells were cultured in RPMI-1640 containing heat-inactivated 10% fetal bovine serum (FBS) in a humidified incubator at 37° C. in 5% CO2.
(§5) The cells were seeded at 2,000 cells/well in RPMI 1640 supplemented with 10% heat-inactivated FBS in 96 well tissue culture plates (CORNING #3340) and incubated at 37° C. in 5% CO2 overnight. On the next day Compound A, doxorubicin or the combination of the two agents was added as a 2-fold dilution series in RPMI containing 1% DMSO. The final DMSO concentration in each assay was 0.1%. The plates were then incubated at 37° C. in 5% CO2 for 72 hours. The number of viable cells was measured using CellTiter-Glo cell viability assay (Promega #G7571). The luminiscence signal was read using a ARVO-SX multimode plate reader (Perkin-Elmer). Combination index was determined by the same method as described in section T1.3.
as §5, with “camptothecin” for “doxorubicin”
The cells were seeded at 2,000 cells/well in RPMI 1640 supplemented with 10% heat-inactivated FBS in 96 well tissue culture plates (CORNING #3340) and incubated at 37° C. in 5% CO2 overnight. On the next day Compound A, 5-FU or the combination of the two agents was added as a 2-fold dilution series in RPMI containing 1% DMSO.

NCI-H460 NSCLC cell line = experiment: as above; details: combination partner SOC with Compound A, simultaneous 72 h
Description: as §1, §2, §3, §4
Human non-small cell lung cancer cell (NCI-H460) was obtained from the American Type Culture Collection (ATCC). NCI-H460 cells were cultured in RPMI-1640 containing heat-inactivated 10% fetal bovine serum (FBS) in a humidified incubator at 37° C. in 5% CO2.
as §5, with “NCI-H460 NSCLC cell line was” for “The cells were”
as §5, with “NCI-H460 NSCLC cell line was” for “The cells were”, “camptothecin” for “doxorubicin”
NCI-H460 NSCLC cell line was seeded at 2,000 cells/well in RPMI 1640 supplemented with 10% heat-inactivated FBS in 96 well tissue culture plates (CORNING #3340) and incubated at 37° C. in 5% CO2 overnight.

[4] = combination partner SOC with Compound A 62.5 nM
[5] = combination partner SOC with Compound A 250 nM
[6] = combination partner SOC with Compound A 1000 nM

**Q.** Which results are given for `CC[C@@]1(O)C(=O)OCc2c1cc1n(c2=O)Cc2cc3ccccc3nc2-1` [Camptothecin, 4-ethyl-4-hydroxy-1H-pyrano[3′,4′:6,7]indolizino[1,2-b]quinoline-3,14-(4H,12H)-dione]?
**A.** Caspase-3/7 fold induction at 24 h (fold of DMSO control) (Caspase-3/7 [1]; [4]): 1.9 fold of DMSO control; Caspase-3/7 fold induction at 24 h (fold of DMSO control) (Caspase-3/7 [1]; [5]): 2.6 fold of DMSO control; Caspase-3/7 fold induction at 24 h (fold of DMSO control) (Caspase-3/7 [1]; [6]): 4.0 fold of DMSO control; Caspase-3/7 fold induction at 24 h (fold of DMSO control) (Caspase-3/7 [2]; [4]): 1.2 fold of DMSO control; Caspase-3/7 fold induction at 24 h (fold of DMSO control) (Caspase-3/7 [2]; [5]): 1.4 fold of DMSO control; Caspase-3/7 fold induction at 24 h (fold of DMSO control) (Caspase-3/7 [2]; [6]): 1.7 fold of DMSO control; Combination index for above fractional inhibition, ED50 [3]: 0.56; Combination index for above fractional inhibition, ED75 [3]: 0.40; Combination index for above fractional inhibition, ED90 [3]: 0.29; Combination index for above fractional inhibition, ED50 (NCI-H460 NSCLC cell line): 0.39; Combination index for above fractional inhibition, ED75 (NCI-H460 NSCLC cell line): 0.39; Combination index for above fractional inhibition, ED90 (NCI-H460 NSCLC cell line): 0.63

**Q.** Which results are given for `O=c1[nH]cc(F)c(=O)[nH]1` [Compound 5-FU, 5-fluorouracil]?
**A.** Caspase-3/7 fold induction at 24 h (fold of DMSO control) (Caspase-3/7 [1]; [4]): 1.5 fold of DMSO control; Caspase-3/7 fold induction at 24 h (fold of DMSO control) (Caspase-3/7 [1]; [5]): 1.7 fold of DMSO control; Caspase-3/7 fold induction at 24 h (fold of DMSO control) (Caspase-3/7 [1]; [6]): 2.5 fold of DMSO control; Caspase-3/7 fold induction at 24 h (fold of DMSO control) (Caspase-3/7 [2]; [4]): 1.2 fold of DMSO control; Caspase-3/7 fold induction at 24 h (fold of DMSO control) (Caspase-3/7 [2]; [5]): 1.3 fold of DMSO control; Caspase-3/7 fold induction at 24 h (fold of DMSO control) (Caspase-3/7 [2]; [6]): 1.4 fold of DMSO control; Combination index for above fractional inhibition, ED50 [3]: 0.68; Combination index for above fractional inhibition, ED75 [3]: 0.54; Combination index for above fractional inhibition, ED90 [3]: 0.53; Combination index for above fractional inhibition, ED50 (NCI-H460 NSCLC cell line): 0.35; Combination index for above fractional inhibition, ED75 (NCI-H460 NSCLC cell line): 0.30; Combination index for above fractional inhibition, ED90 (NCI-H460 NSCLC cell line): 0.37

**Q.** How did the “Caspase-3/7 fold induction at 24 h (fold of DMSO control)” value (from here on “Caspase-3/7 fold induction at 24 h”) (Caspase-3/7 [1]; [4]) turn out when `COc1cccc2c1C(=O)c1c(O)c3c(c(O)c1C2=O)C[C@@](O)(C(=O)CO)C[C@@H]3O[C@H]1C[C@H](N)[C@H](O)[C@H](C)O1` [Doxorubicin, (2S,4S)-4-(3-amino-2,3,6-trideoxy-α-L-lyxo-hexopyranosyloxy)-2,5,12-trihydroxy-2-hydroxyacetyl-7-methoxy-1,2,3,4-tetrahydrotetracene-6,11-dione] was run?
**A.** Its value is 1.6 fold of DMSO control.

**Q.** What about the “Caspase-3/7 fold induction at 24 h” value (Caspase-3/7 [1]; [5]) of the same compound?
**A.** Its value is 2.8 fold of DMSO control.

**Q.** And the “Caspase-3/7 fold induction at 24 h” value (Caspase-3/7 [1]; [6])?
**A.** The value was 4.1 fold of DMSO control.

**Q.** And the “Caspase-3/7 fold induction at 24 h” value (Caspase-3/7 [2]; [4])?
**A.** The value was 1.3 fold of DMSO control.

**Q.** And the “Caspase-3/7 fold induction at 24 h” value (Caspase-3/7 [2]; [5])?
**A.** Its value is 1.7 fold of DMSO control.

**Q.** What about the “Caspase-3/7 fold induction at 24 h” value (Caspase-3/7 [2]; [6]) of the same compound?
**A.** The value was 2.8 fold of DMSO control.

**Q.** What about the “Combination index for above fractional inhibition, ED50” value [3] of the same compound?
**A.** Its value is 0.70.

**Q.** And the “Combination index for above fractional inhibition, ED75” value [3]?
**A.** Its value is 0.43.

**Q.** What about the “Combination index for above fractional inhibition, ED90” value [3] of the same compound?
**A.** Its value is 0.27.

**Q.** What about the “Combination index for above fractional inhibition, ED50” value (NCI-H460 NSCLC cell line) of the same compound?
**A.** The value was 0.27.

**Q.** And the “Combination index for above fractional inhibition, ED75” value (NCI-H460 NSCLC cell line)?
**A.** The value was 0.18.

**Q.** What about the “Combination index for above fractional inhibition, ED90” value (NCI-H460 NSCLC cell line) of the same compound?
**A.** Its value is 0.17.
